Laboratory results as given in ChEMBL document CHEMBL1201862, “PubChem BioAssay data set” (2004).
Each block holds one compound with its values, some of them ahead of it. Calls of active or inactive are those of the source.

Tests used:
[1] = HEp-2 cell cytotoxicity, dose response, cytotoxicity control for RSV inhibitor project, HTS (AID 2410); assay type: functional; details: human respiratory syncytial virus
[2] = inhibitors of intracellular T. cruzi replication, confirmation, NIH3T3 host cells, beta-gal luminescence (AID 2044); assay type: functional, cell-based;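 further: intracellular parasites grown in NIH/3T3 mouse fibroblasts as host cells; luminescent beta-galactosidase reporter signal from transgenic T. cruzi replicating inside host cells; inhibitors lower the luminescence signal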
[3] = cytotoxicity toward NIH3T3 fibroblasts, dose response, counter-screen, cell-based, ATP luminescence, mouse fibroblasts (AID 2010); assay type: functional;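 further: cells exposed to compound for about 90 hours before reading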
Cytochrome P450 2C19 = Cytochrome P450 2C19 (Homo sapiens, UniProt P33261); assay: Cytochrome panel assay with activity outcomes. Panel member name: p450-cyp2c19 Compounds with AC50 equal or less than 10 uM are considered active; assay type: functional
Cytochrome P450 2D6 = Cytochrome P450 2D6 (Homo sapiens, UniProt P10635);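 further: CYP2D6 member of a cytochrome P450 panel assay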
[4] = tested on: Streptococcus sp. 'group A'; assay: growth inhibition of control SK(-) GAS strain, dose response, counter-screen for streptokinase expression inhibitor project, luminescence, kanamycin, BacTiterGlo, confirmation (AID 1900); assay type: functional, organism-based
Streptococcus = assay: Group A Streptococcus viability loss, dose response, counter-screen for streptokinase expression inhibitor project, luminescence, BacTiterGlo (AID 1915); assay type: functional, organism-based;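 further: potency for reduction of bacterial viability or growth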
[5] = Luminescence Cell-Based Dose Retest to Confirm Inhibitors of Cancer Stem Cells. [Related pubchem assays (depositor defined):AID2717, AID2721]; assay type: functional; details: Homo sapiens
Cytochrome P450 2C9 = Cytochrome P450 2C9 (Homo sapiens, UniProt P11712)
Cytochrome P450 3A4 = Cytochrome P450 3A4 (Homo sapiens, UniProt P08684);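 further: CYP3A4 tested as one member of a cytochrome P450 panel screen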
Chain of Cytochrome P450 3A4 (P08684 whole entry): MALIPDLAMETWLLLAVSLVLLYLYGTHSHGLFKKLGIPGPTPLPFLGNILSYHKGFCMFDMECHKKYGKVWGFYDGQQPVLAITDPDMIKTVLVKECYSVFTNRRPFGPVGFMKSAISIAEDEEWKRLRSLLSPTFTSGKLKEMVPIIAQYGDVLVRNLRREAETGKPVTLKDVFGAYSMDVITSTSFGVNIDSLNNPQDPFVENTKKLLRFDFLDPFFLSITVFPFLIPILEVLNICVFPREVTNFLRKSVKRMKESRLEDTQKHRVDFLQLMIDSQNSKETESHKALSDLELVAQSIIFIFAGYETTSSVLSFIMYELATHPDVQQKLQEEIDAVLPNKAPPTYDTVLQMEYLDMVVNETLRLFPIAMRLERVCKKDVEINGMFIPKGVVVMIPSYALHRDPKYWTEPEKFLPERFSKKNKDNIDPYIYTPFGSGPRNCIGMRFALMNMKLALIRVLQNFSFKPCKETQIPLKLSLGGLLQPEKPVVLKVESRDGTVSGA

Chain of Cytochrome P450 2C9 (P11712 whole entry): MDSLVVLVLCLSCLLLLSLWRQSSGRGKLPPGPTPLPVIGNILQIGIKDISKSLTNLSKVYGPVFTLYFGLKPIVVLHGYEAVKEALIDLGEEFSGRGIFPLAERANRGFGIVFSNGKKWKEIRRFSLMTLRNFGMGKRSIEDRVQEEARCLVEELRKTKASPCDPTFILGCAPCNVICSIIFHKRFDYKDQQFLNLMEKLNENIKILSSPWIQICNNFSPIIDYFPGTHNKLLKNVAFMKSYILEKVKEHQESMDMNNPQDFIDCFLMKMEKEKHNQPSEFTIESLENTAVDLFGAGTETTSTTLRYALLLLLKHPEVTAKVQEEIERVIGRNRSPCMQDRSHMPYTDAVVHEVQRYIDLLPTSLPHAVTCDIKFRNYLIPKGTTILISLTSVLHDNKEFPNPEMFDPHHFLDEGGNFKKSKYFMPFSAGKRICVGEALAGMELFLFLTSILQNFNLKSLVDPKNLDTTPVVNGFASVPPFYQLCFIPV
Chain of Cytochrome P450 2C19 (P33261 whole entry): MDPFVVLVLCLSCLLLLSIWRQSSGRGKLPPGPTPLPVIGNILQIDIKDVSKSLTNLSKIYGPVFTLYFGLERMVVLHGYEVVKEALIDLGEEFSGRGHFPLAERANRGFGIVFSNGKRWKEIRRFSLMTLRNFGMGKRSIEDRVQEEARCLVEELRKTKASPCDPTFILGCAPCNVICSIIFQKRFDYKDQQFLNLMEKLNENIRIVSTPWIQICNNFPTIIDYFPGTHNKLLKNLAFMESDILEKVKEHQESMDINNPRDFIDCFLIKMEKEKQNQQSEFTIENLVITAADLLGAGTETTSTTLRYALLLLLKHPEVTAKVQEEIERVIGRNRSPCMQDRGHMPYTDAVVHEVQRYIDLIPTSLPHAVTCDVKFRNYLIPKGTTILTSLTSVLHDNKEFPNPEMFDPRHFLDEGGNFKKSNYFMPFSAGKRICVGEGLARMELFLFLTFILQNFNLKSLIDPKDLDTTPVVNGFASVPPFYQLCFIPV
Chain of Cytochrome P450 2D6 (P10635 whole entry): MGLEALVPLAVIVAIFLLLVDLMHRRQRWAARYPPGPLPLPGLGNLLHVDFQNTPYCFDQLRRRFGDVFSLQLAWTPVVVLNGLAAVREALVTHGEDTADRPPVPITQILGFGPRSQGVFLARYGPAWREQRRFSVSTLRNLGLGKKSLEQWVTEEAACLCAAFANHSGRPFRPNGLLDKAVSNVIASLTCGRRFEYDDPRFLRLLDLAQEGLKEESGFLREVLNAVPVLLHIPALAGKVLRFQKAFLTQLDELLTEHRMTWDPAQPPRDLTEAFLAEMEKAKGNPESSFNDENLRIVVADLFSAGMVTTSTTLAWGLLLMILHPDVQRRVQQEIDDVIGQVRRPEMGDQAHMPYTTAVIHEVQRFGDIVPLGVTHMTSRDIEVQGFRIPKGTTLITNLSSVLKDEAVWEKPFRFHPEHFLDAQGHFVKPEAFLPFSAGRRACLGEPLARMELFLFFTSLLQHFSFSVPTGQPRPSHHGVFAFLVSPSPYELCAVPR

SMILES: COc1ccc(-c2nc(-c3cc([N+](=O)[O-])ccc3C)c(-c3ccccc3)[nH]2)cc1OC
- CC50 [1]: 21.4 µM (active)

SMILES: Clc1ccc(OCCOCCN2CCCCC2)c(Br)c1
- EC50 [2]: 0.166 µM (active)
- EC50 [3]: 13.2 µM (active)

- AC50 (Cytochrome P450 2C19; read-out: AC50): 7.94 µM (inconclusive)
SMILES: COC(=O)[C@@]1(Cc2ccc(OC)cc2)[C@H]2c3cc(C(=O)N4CCCC4)n(Cc4ccc(OC(F)(F)F)cc4)c3C[C@H]2CN1C(=O)c1ccccc1

SMILES: CC(C)c1nccn1Cc1ccc(Cl)cc1Cl
- AC50 (Cytochrome P450 2C19; read-out: AC50): 2 µM (inconclusive)
- AC50 (Cytochrome P450 2D6): 3.16 µM (inconclusive)

SMILES: CCOc1ccc(N/C(C)=C/C(=O)c2ccc(C)o2)cc1
- EC50 [2]: 2.98 µM (active)
- EC50 [3]: > 60 µM (not active)

SMILES: CC(C)=CCc1c(O)c(CC=C(C)C)c2occ(-c3ccc(O)cc3)c(=O)c2c1O
- EC50 [4]: 2.66 µM (active)
- EC50 (Streptococcus): 3.28 µM (active)
- AC50 [5]: 2.62 µM (active)

- AC50 (Cytochrome P450 2C19; read-out: AC50): 7.94 µM (inconclusive)
SMILES: N#Cc1ccc(C(c2ccc(C#N)cc2)n2cncn2)cc1 [LETROZOLE]

SMILES: CC1CCCC(NC(=O)C2CCCN2S(=O)(=O)c2cccc3nsnc23)C1C (centres undefined)
- CC50 [1]: 23.6 µM (active)

- AC50 (Cytochrome P450 2C19): inconclusive
- AC50 (Cytochrome P450 2C9): 8.91 µM (inconclusive)
SMILES: Oc1ccccc1/N=C/c1c[nH]nc1O

- AC50 (Cytochrome P450 2D6): 14.1 µM (inconclusive)
SMILES: COCC(C)NCc1cccc(C)c1 (centres undefined)

SMILES: CCOc1ccccc1NC(=O)Nc1ccc(CC#N)cc1
- CC50 [1]: 28 µM (active)

SMILES: OCCC1CN(Cc2cccc(C(F)(F)F)c2)CCN1Cc1ccccc1 (centres undefined)
- EC50 [2]: 1.33 µM (active)
- EC50 [3]: > 60 µM (inconclusive)

SMILES: CCOC(=O)c1sc(NC(=O)Nc2ccccc2Cl)cc1C
- EC50 [2]: 2.26 µM (active)
- EC50 [3]: > 30 µM (not active)
- AC50 [5]: 5.37 µM (active)

SMILES: CCN1CCN(c2ccc(S(=O)(=O)N3CCOCC3)cc2NC(=O)CCC(C)C)CC1
- EC50 [2]: 1.34 µM (active)
- EC50 [3]: > 60 µM (not active)

SMILES: O=C(NCc1ccc(Cl)cc1)c1cccc(NC(=O)c2ccccc2)c1
- AC50 [5]: 5.29 µM (active)

SMILES: Cc1cc(C(=O)COc2ccc(Cl)cc2Br)c(C)n1C
- CC50 [1]: > 50 µM (active)

- AC50 (Cytochrome P450 2C9): 39.8 µM (inconclusive)
SMILES: Cc1ccc(C(=O)N2C3C=CC(C3)C2(C(F)(F)F)C(F)(F)F)cc1 (centres undefined)

- AC50 (Cytochrome P450 2C9): 15.8 µM (inconclusive)
SMILES: Cc1ccc(S(=O)(=O)NCC(=O)N(CC(=O)NCc2ccco2)Cc2cccs2)cc1

SMILES: N=C(N)N/N=C/c1ccc(Cl)c([N+](=O)[O-])c1
- EC50 [2]: 0.108 µM (active)
- EC50 [3]: > 60 µM (not active)

SMILES: Cc1cccc2cc(CN(Cc3nnnn3Cc3ccco3)C3CCCC3)c3nnnn3c12
- CC50 [1]: > 50 µM (active)

SMILES: CCOc1ccccc1NC(=O)CSc1nc2c(c(=O)n1C)SC(C)C2 (centres undefined)
- CC50 [1]: 35.2 µM (active)

SMILES: Cc1cccc(-c2nc(Nc3cccc(O)c3)c3ccccc3n2)c1
- AC50 [5]: 3.88 µM (active)

SMILES: COc1ccc(N2CCN(C(=O)CSc3nnc4c(C)cc5cc(C)ccc5n34)CC2)cc1
- CC50 [1]: > 50 µM (active)

SMILES: O/N=C/c1cc(Cl)ccc1OCc1ccccc1Cl
- AC50 [5]: 4.45 µM (active)

- AC50 (Cytochrome P450 2C9): 20 µM (inconclusive)
SMILES: COCCn1c(=O)c(CCc2ccccc2)nc2cnc(OC)nc21

SMILES: C/C(=N\c1ccccc1C)C1=C(O)SCC1=O
- CC50 [1]: 32.3 µM (active)

SMILES: Cc1ccc(C2CC(c3cccs3)=NN2C(=O)CSc2nc3ccccc3o2)cc1 (centres undefined)
- CC50 [1]: 30.2 µM (active)

SMILES: O=S(=O)(c1ccc(Cl)cc1)N1CCN(C2CCN(Cc3ccccc3)CC2)CC1
- EC50 [2]: 1.07 µM (active)
- EC50 [3]: > 60 µM (not active)

SMILES: O=C(O)C(Cc1cccs1)C(=O)O
- AC50 (Cytochrome P450 2C19): inconclusive

SMILES: Cc1ccc(-n2nc3c(N4CCC(C(=O)NCc5cccc(F)c5)CC4)nnc(C)c3c2C)cc1
- CC50 [1]: 32.7 µM (active)

- AC50 (Cytochrome P450 3A4): 28.2 µM (inconclusive)
- AC50 (Cytochrome P450 2C9): 6.31 µM (inconclusive)
SMILES: C=CCOc1cccc(CNn2cnnc2S)c1

SMILES: Cc1nc(N2CCC(C)CC2)c2c(C)c(C(=O)Nc3ccc(C(F)(F)F)cc3)sc2n1
- EC50 [2]: 1.41 µM (active)
- EC50 [3]: > 60 µM (inconclusive)

- AC50 (Cytochrome P450 3A4): 3.98 µM (inconclusive)
SMILES: CC(C)=CCC/C(C)=C/CO/N=C1/[C@H]2O[C@@H]2[C@@H](O)[C@H]2[C@H]1CCn1c(=O)n(Cc3cc4c(cc3Cl)OCO4)c(=O)n12

- AC50 (Cytochrome P450 2C9): 6.31 µM (inconclusive)
SMILES: CN(CCc1ccccn1)Cc1ccc(Cl)cc1Cl

- AC50 (Cytochrome P450 2C19; read-out: AC50): 17.8 µM (inconclusive)
- AC50 (Cytochrome P450 2C9): 11.2 µM (inconclusive)
SMILES: COc1cccc(-c2nc(CS(=O)(=O)CC(=O)NCCCOC(C)C)c(C)o2)c1

SMILES: Cc1nn2c(COc3ccc(NC(=O)c4ccccc4)cc3)nnc2c2ccccc12
- EC50 [4]: 0.854 µM (active)
- EC50 (Streptococcus): 0.859 µM (active)

SMILES: CC(C)=CCc1c(O)ccc(C(=O)Cc2ccccc2)c1O
- AC50 [5]: 3.82 µM (active)

SMILES: CCCCCCCCCCCCCC(=O)O[C@H]1[C@@H](C)[C@@]2(O)[C@@H](C=C(CO)C[C@]3(O)C(=O)C(C)=C[C@@H]23)C2C(C)(C)[C@]21OC(C)=O (some centres undefined)
- AC50 (Cytochrome P450 2C9): 10 µM (inconclusive)
